Measurements from patent US20060228730A1, “Methods for identifying small molecules that bind specific RNA structural motifs” (priority 2001, published 2006).

Assays:
[1] = test system: Rev / IIB (or RRE) region of HIV RNA; settings: Zapp et al., Cell, 1993; cited from earlier work
[2] = test system: HIV-1 TAR element TAR RNA oligonucleotide; assay: Gel retardation analysis (gel mobility shift), Tat peptide-TAR RNA; format: binding; settings: Tat47-58 0.1-1.6 μM, 50 pmole TAR RNA, TK buffer, 12% non-denaturing polyacrylamide gel, FIG. 1
Experimental: FIG. 1. Gel retardation analysis to detect peptide-RNA interactions. In 20 μl reactions containing increasing concentrations of Tat47.58 peptide (0.1 μM, 0.2 μM, 0.4 μM, 0.8 μM, 1.6 μM) 50 pmole TAR RNA oligonucleotide was added in TK buffer. The reaction mixture was then heated at 90° C. for 2 min and allowed to cool slowly to 24° C. […] of 30% glycerol was added to each sample and applied to a 12% non-denaturing polyacrylamide gel. The gel was electrophoresed using 1200 volt-hours at 4° C. in TBE Buffer. Following electrophoresis, the gel was dried and the radioactivity was quantitated with a phosphorimager. The concentration of peptide added is indicated above each lane.
Tris-potassium chloride (TK) buffer is composed of 50 mM Tris-HC1 pH 7.4, 20 mM KCl, 0.1%Triton X-100, and 0.5 mM MgCl2. Tris-borate-EDTA (TBE) buffer is composed of 45 mM Tris-borate pH 8.0, and 1 mM EDTA. […]
RNA oligonucleotides were purchased from Dharmacon, Inc, Lafayette, Colo.). […] Then 10 μl of 30% glycerol was added to each reaction tube and the entire sample was loaded onto a TBE non-denaturing polyacrylamide gel and electrophoresed at 1200-1600 volt-hours at 4° C.; The gel was exposed to an intensifying screen and radioactivity was quantitated using a Typhoon phosporimager (Molecular Dynamics).

[3] = test system: HIV-1 TAR element TAR RNA oligonucleotide; assay: Gel retardation analysis using automated capillary electrophoresis, Tat peptide-TAR RNA; format: binding; settings: increasing concentrations of Tat peptide (0.1-1.6 μM), TK buffer, SCE9610 apparatus, FIG. 5
Experimental: FIG. 5. Gel retardation analysis to detect peptide-RNA interactions. In reactions containing increasing concentrations of Tat47-58 peptide (0.1 μM, 0.2 μM, 0.4 μM, 0.8 μM, 1.6 μM) 50 pmole TAR RNA oligonucleotide was added in TK buffer. The reaction mixture was then heated at 90° C. for 2 min and allowed to cool slowly to 24° C. The reactions were loaded onto a SCE9610 automated capillary electrophoresis apparatus (SpectruMedix; State College, Pennsylvania). The peaks correspond to the amount of free TAR RNA (“TAR”) or the Tat-TAR complex (“Tat-TAR”). The concentration of peptide added is indicated below each lane.
Tris-potassium chloride (TK) buffer is composed of 50 mM Tris-HCl pH 7.4, 20 mM KCl, 0.1% Triton X-100, and 0.5 mM MgCl2. Tris-borate-EDTA (TBE) buffer is composed of 45 mM Tris-borate pH 8.0, and 1 mM EDTA. Tris-Potassium chloride-magnesium (TKM) buffer is composed of 50 mM Tris-HCl pH 7.4, 20 mM KCl, 0.1% Triton X-100 and 5 mM MgCl2.
RNA oligonucleotides were purchased from Dharmacon, Inc. Lafayette, Colo.). 500 pmole of a 5′ fluorescein labeled oligonucleotide corresponding to the HIV-1 TAR element TAR RNA (5′-[…]-3′ (SEQ ID NO: 30); Huq et al., 1999, Nucleic Acids Research. 27:1084-1093; Hwang et al., 1999, Proc. Natl. Acad. Sci. USA 96:12997-13002) was used. […]

[4] = test system: HIV TAR RNA element oligonucleotide; assay: Gel mobility shift, specificity control with unrelated oligonucleotide; format: binding; settings: incubated with 10 μg/ml gentamicin, FIG. 3
Experimental: (§1) FIG. 3. The presence of 10 pg/ml gentamicin produces a gel mobility shift in the presence of the 16S rRNA oligonucleotide. 20 μl reactions containing increasing concentrations of gentamicin (100 ng/ml, 10 ng/ml, 1 ng/ml, 100 pg/ml, and 10 pg/ml) were added to 50 pmole RNA oligonucleotide in TKM buffer were treated as described for FIG. 2.
RNA oligonucleotides were purchased from Dharmacon, Inc, Lafayette, Colo.). 500 pmole of either a 5′ fluorescein labeled oligonucleotide corresponding to the 16S rRNA A site (5′-[…]-3′ (SEQ ID NO: 29); Moazed & Noller, 1987, Nature 327:389-394; Woodcock et al., 1991, EMBO J. 10:3099-3103; Yoshizawa et al., 1998, EMBO J. 17:6437-6448) or a 5′ fluorescein labeled oligonucleotide corresponding to the HIV-1 TAR element TAR RNA (5′-[…]-3′ (SEQ ID NO: 30); Huq et al., 1999, Nucleic Acids Research. 27:1084-1093; Hwang et al., 1999, Proc. Natl. Acad. Sci. USA 96:12997-13002) was 3′ labeled with 5-^32P cytidine 3′,5′-bis(phosphate) (NEN) and T4 RNA ligase (NEBiolabs) in 10% DMSO as per manufacturer's instructions. […] Then 10 μl of 30% glycerol was added to each reaction tube and the entire sample was loaded onto a TBE non-denaturing polyacrylamide gel and electrophoresed at 1200-1600 volt-hours at 4° C.; The gel was exposed to an intensifying screen and radioactivity was quantitated using a Typhoon phosporimager (Molecular Dynamics). […]

[5] = test system: oligonucleotide corresponding to the 16S rRNA A site; assay: Gel retardation analysis (gel mobility shift), gentamicin-16S rRNA; format: binding
Experimental: FIG. 2. Gentamicin interacts with an oligonucleotide corresponding to the 16S rRNA. 20 μl reactions containing increasing concentrations of gentamicin (1 ng/ml, 10 ng/ml, 100 ng/ml, 1 μg/ml, 10 μg/ml, 50 μg/ml, 500 μg/ml) were added to 50 pmole RNA oligonucleotide in TKM buffer, heated at 90° C. for 2 min and allowed to cool slowly to 24° C. Then 10 μl of 30% glycerol was added to each sample and the samples were applied to a 13.5% non-denaturing polyacrylamide gel. The gel was electrophoresed using 1200 volt-hours at 4° C. in TBE Buffer Following electrophoresis, the gel was dried and the radioactivity was quantitated using a phosphorimager. The concentration of gentamicin added is indicated above each lane.
as §1
FIG. 4. Gentamicin binding to the 16S rRNA oligonucleotide is weak in the absence of MgCl2.
Tris-potassium chloride (TK) buffer is composed of 50 mM Tris-HC1 pH 7.4, 20 mM KCl, 0.1%Triton X-100, and 0.5 mM MgCl2. Tris-borate-EDTA (TBE) buffer is composed of 45 mM Tris-borate pH 8.0, and 1 mM EDTA. Tris-Potassium chloride-magnesium (TKM) buffer is composed of 50 mM Tris-HCl pH 7.4, 20 mM KCl, 0.1% Triton X-100 and 5 mM MgCl2.
RNA oligonucleotides were purchased from Dharmacon, Inc, Lafayette, Colo.). 500 pmole of either a 5′ fluorescein labeled oligonucleotide corresponding to the 16S rRNA A site (5′-[…]-3′ (SEQ ID NO: 29); Moazed & Noller, 1987, Nature 327:389-394; Woodcock et al., 1991, EMBO J. 10:3099-3103; Yoshizawa et al., 1998, EMBO J. 17:6437-6448) or a 5′ fluorescein labeled oligonucleotide corresponding to the HIV-1 TAR element TAR RNA (5′-[…]-3′ (SEQ ID NO: 30); Huq et al., 1999, Nucleic Acids Research. 27:1084-1093; Hwang et al., 1999, Proc. Natl. Acad. Sci. USA 96:12997-13002) was 3′ labeled with 5-^32P cytidine 3′,5′-bis(phosphate) (NEN) and T4 RNA ligase (NEBiolabs) in 10% DMSO as per manufacturer's instructions. The labeled oligonucleotides were purified using G-25 Sephadex columns (Boehringer Mannheim). For Tat-TAR gel retardation reactions the method of Huq et al. (Nucleic Acids Research, 1999, 27:1084-1093) was utilized with TK buffer containing 0.5 mM MgCl2 and a 12-mer Tat peptide (YGRKKRRQRRRP (SEQ ID NO: 31); single letter amino acid code). For 16S rRNA-gentamicin reactions, the method of Huq et al. was used with TKM buffer. In 20 μl reaction volumes 50 pmoles of ^32P cytidine-labeled oligonucleotide and either gentamicin sulfate (Sigma) or the short Tat peptide (Tat47.58) in TK or TKM buffer were heated at 90° C. for 2 minutes and allow to cool to room temperature (approximately 24° C.) over 2 hours. Then 10 μl of 30% glycerol was added to each reaction tube and the entire sample was loaded onto a TBE non-denaturing polyacrylamide gel and electrophoresed at 1200-1600 volt-hours at 4° C.; The gel was exposed to an intensifying screen and radioactivity was quantitated using a Typhoon phosporimager (Molecular Dynamics).

[6] = test system: 60-mer from ribosomal RNA; settings: Cundliffe et al., 1990; cited from earlier work

NC[C@@H]1O[C@H](O[C@H]2[C@@H](O)[C@H](O[C@@H]3[C@@H](O)[C@H](N)C[C@H](N)[C@H]3O[C@H]3O[C@H](CO)[C@@H](O)C[C@H]3N)O[C@@H]2CO)[C@H](N)[C@@H](O)[C@@H]1O[C@H]1O[C@H](CO)[C@@H](O)[C@H](O)[C@@H]1O [lividomycin A]
blocking of the binding of Rev to its viral recognition element in the IIB (or RRE) region of HIV RNA [1]: can block the binding

NC[C@@H]1O[C@H](O[C@H]2[C@@H](O)[C@H](O[C@@H]3[C@@H](O)[C@H](N)C[C@H](N)[C@H]3O[C@H]3O[C@H](CN)[C@@H](O)[C@H](O)[C@H]3N)O[C@@H]2CO)[C@H](N)[C@@H](O)[C@@H]1O [neomycin B]
blocking of the binding of Rev to its viral recognition element in the IIB (or RRE) region of HIV RNA [1]: can block the binding

NC[C@H]1O[C@H](O[C@H]2[C@H](O)[C@@H](O[C@H]3O[C@H](CO)[C@@H](O)[C@H](N)[C@H]3O)[C@H](N)C[C@@H]2N)[C@H](N)C[C@@H]1O [tobramycin]
blocking of the binding of Rev to its viral recognition element in the IIB (or RRE) region of HIV RNA [1]: can block the binding

YGRKKRRQRRRP [Tat47.58 peptide]
gel mobility shift of TAR RNA oligonucleotide in the presence of the Tat peptide [2]: a clear shift is visible
shift of TAR RNA peak in automated capillary electrophoresis [3]: a clear shift is visible

gentamicin
gel mobility shift of unrelated oligonucleotide (HIV TAR RNA element) [4]: does not result in a gel mobility shift
gentamicin concentration as low as which produces the mobility shift ([5]; TKM buffer (5 mM MgCl2), FIG. 2): 10 ng/mL
gentamicin concentration as low as which gel mobility shifts are produced ([5]; TKM buffer, concentrations ranged from 100 ng/ml to 10 pg/ml, FIG. 3): 10 pg/mL
gentamicin binding to the 16S rRNA oligonucleotide in the absence of MgCl2 ([5]; buffer does not contain MgCl2, FIG. 4 legend): weak
mobility shift when gentamicin is added after renaturation has proceeded to 75° C. ([5]; gentamicin added after the renaturation step proceeded to 75° C.): a mobility shift is not produced
gel shift when gentamicin is added at 90° C. or 85° C. ([5]; gentamicin present during the entire denaturation/renaturation cycle, data not shown): a gel shift is visualized
gentamicin concentration that must be added to produce a gel shift when MgCl2 is not present ([5]; no MgCl2 in buffer, FIG. 4): 1 mg/mL
mobility shift of RNA oligonucleotide corresponding to the 16S rRNA A site ([5]; varying concentrations of gentamicin (1 ng/ml-500 μg/ml), TKM buffer, 13.5% non-denaturing gel, FIG. 2): produces a mobility shift

thiostreptone
binding to a 60-mer from ribosomal RNA [6]: binds tightly
